Measured values: US9868763B2, “Modulators of protease activated receptors” (The University of Queensland, priority 2011, dated 2018)
“Also recorded” adds a separate entry of the source.

Assays:
[1] = tested on: λ-carrageenan-induced paw oedema; assay: λ-carrageenan-induced paw oedema; format: in vivo, Wistar rat; conditions: 10 mg/kg p.o., 1% λ-carrageenan intraplantar
Protocol: Methods were based on literature (Kelso E B et al., J Pharmacol Exp Ther 2006, 316(3):1017-24; Kawabata A et al., Peptides 2001, 23(6):1181-3). Male Wistar rats (n=4 per group) were given 10 mg/kg PAR2 antagonist 52 (p.o. via gavage in olive oil, 500 μL). Control animals received only olive oil. Thirty minutes later, λ-carrageenan was administered into the right hind paw pad (1% w/v in saline, 100 μL, i.pl, Left paw saline control). Paw thickness and width were measured at 1-6, 8 and 24 h (as above) and swelling expressed in area (mm^2) and plotted as % change from baseline of each individual paw.

MIN6 beta cells = assay: Glucose-stimulated insulin secretion (GSIS); format: cell-based, mouse; conditions: 52 as pre-treatment before 2f-LIGRLO-NH2
Protocol: Rat pancreas and mouse MIN6 beta cells were cultured in DMEM (25 mM glucose) supplemented with 15% fetal calf serum, 10 U/mL penicillin, 10 U/mL streptomycin, 2 mM L-glutamine and […] 2-mercaptoethanol. MIN6 beta cells were passaged and harvested using non-enzymatic cell dissociation solution (Sigma-Aldrich). Glucose-stimulated insulin secretion (GSIS) was performed as described next. MIN6 beta cells were seeded at 0.8×106 mL in a 96-well plate and cultured for 48 h. Cells were washed twice with glucose-free Krebs buffer (NaCl 119 mM, KCl 4.74 mM, CaCl2 2.54 mM, MgCl2 1.19 mM, KH2PO4 1.19 mM, NaHCO3 25 mM, HEPES (pH 7.4) 10 mM and 0.05% BSA). Cells were pre-treated with compound 52 for 30 min with Krebs buffer supplemented with 2.5 mM glucose. After incubation, cells were washed twice with glucose-free Krebs buffer. Glucose (2.5 mM and 25 mM) and compounds were added at specified concentration and incubated for 1 h. Supernatants were collected and insulin concentrations were determined by ELISA (Abeam).

Water solubility = format: physicochemical
[2] = Pharmacokinetics, single oral dose; format: in vivo, Wistar rat
Protocol: Male Wistar rats were surgically implanted with a jugular vein catheter. Blood samples (heparinised) were collected from the catheter of an unanaesthetised, unrestrained rat, 5 min prior to PAR2 antagonist 52 administration (10 mg/kg p.o.) and 30 min, 1-6, 8 and 24 h post-administration. Rats not implanted with a catheter were given PAR2 antagonist 52 (10 mg/kg/day p.o.) four days consecutively (n=6). On the fifth day, plasma, cerebrospinal fluid (CSF), paw tissue and intraperitoneal adipose were collected for LCMS analysis.

[3] = tested on: collagen-induced arthritis; assay: Collagen-induced arthritis; format: in vivo, Wistar rat
Protocol: Protocols were based on those described (Lin H S et al., Br J Pharmacol 2007, 150(7):862-72; Nishikawa M et al., Arthritis Rheum 2003, 48(9):2670-81). Female Wistar rats (200-250 g, n′ 14) were immunised on Day 0 with Bovine nasal collagen (200 μg, 50:50 0.05 M acetic acid and Freund's incomplete adjuvant, s.c. tail base). Sham animals received vehicle only (no collagen; 50:50 0.05 M acetic acid and Freund's incomplete adjuvant, s.c. tail base). Boosters of the same dose were given on Day 7. Daily oral dosage of PAR-2 antagonist 52 (10 mg/kg in olive oil, 500 μL, p.o. weight adjusted) or olive oil vehicle (arthritic control, and sham) began on Day 7. Paw thickness and width (as above), body weight, disease activity score and mechanical nociceptive thresholds were measured every second day from Day 10-28.
Disease Activity Index (DAI) and mechanical hyperalgesia were assessed and qualitatively scored 0 to 4+. The DAI is based on multiple characteristic disease pathologies, incorporating changes in mobility, inflammation and discomfort/pain (maximum total score of 18). Plantar mechanical nociceptive thresholds were measured using Semmes Weinstein Von Frey Anaesthesiometers (Touch Test Sensory Evaluators, Stoelting, Ill., USA).
Day 28 all rats were euthanised and hind paws fixed in 4% paraformaldehyde, decalcified and embedded in paraffin wax and cut at […]. Sections were stained with H&E for general tissue architecture, with Masson's Trichrome for collagen loss or with alcian blue/safranin-O for mast cells (42). Tissue macrophages were labeled using ED1 monoclonal antibody (for immature rat macrophage/monocytes, Serotec) using standard IHC techniques. Microscopic analysis and cell counts were made from multiple (>6) images/paw with aid of ImageJ 1.42q software.

PAR2 = molecular target: T1, PAR2 (Homo sapiens, UniProt P55085); assay: PAR2-induced intracellular Ca2+ release in human macrophages; format: cell-based; set-up: endogenous in cells
T1 sequence (P55085 26-397): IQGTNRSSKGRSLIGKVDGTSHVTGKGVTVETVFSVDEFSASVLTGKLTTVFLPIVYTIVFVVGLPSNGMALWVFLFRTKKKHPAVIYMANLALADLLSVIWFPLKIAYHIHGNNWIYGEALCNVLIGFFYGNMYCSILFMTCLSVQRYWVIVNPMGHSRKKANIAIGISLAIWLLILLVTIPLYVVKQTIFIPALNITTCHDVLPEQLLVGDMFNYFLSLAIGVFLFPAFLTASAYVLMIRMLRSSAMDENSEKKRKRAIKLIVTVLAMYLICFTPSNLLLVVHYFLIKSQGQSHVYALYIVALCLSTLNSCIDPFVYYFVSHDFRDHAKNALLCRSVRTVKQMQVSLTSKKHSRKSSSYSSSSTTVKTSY
From the text: Peripheral blood mononuclear cells were isolated from buffy coat (Australian Red Cross, Kelvin Grove, QLD) using Ficoll-paque density centrifugation (GE Healthcare Bio-Science, Uppsala, Sweden). CD14^+ monocytes were positively selected using CD14^+ MACS magnetic beads (Miltenyi Biotech, Auburn, Calif., USA). Monocytes were differentiated to HMDM in complete media using M-CSF (PeptroTech Inc, Rocky Hill, N.J., USA). HMDM were supplemented with 50% fresh complete medium containing CSF-1 on Day 5 after seeding and re-plated for use on Day 7.

[4] = male, Wistar, rat, 10 mg/kg oral gavage, plasma
[5] = alcian blue/safranin-O staining

SMILES: CC[C@H](C)[C@@H](NC(=O)[C@H](CC1CCCCC1)NC(=O)c1ccno1)C(=O)N1CCC2(C=Cc3ccccc32)CC1 [Compound 52]
- λ-carrageenan-induced oedema reduced to [1]: 50%
- glucose-stimulated insulin secretion (MIN6 beta cells): normalised insulin secretion
- water solubility (Water solubility): not water soluble enough to administer i.v.
- presence in plasma after 24 h ([2]; 10 mg/kg oral gavage): No PAR2 antagonist 52 was present
- concentration at 3 h ([2]; Wistar, rat, paw tissue homogenate, po, 3 h post administration, 10 mg/kg p.o., LCMS/MS, read-out: concentration in paw tissue homogenates): 35 nM
- bioavailability ([2]; male, Wistar, rat, plasma, po, 10 mg/kg, 10 mg/kg p.o., from AUC 0-6 h, read-out: oral bioavailability F): 55%
- Cmax [2, 4]: 1700 ± 400 nM
- Tmax [2, 4]: 4 ± 0.6 h
- half-life [2, 4]: 67.8 ± 7.8 min
- collagen-induced rat arthritis ([3]; 10 mg/kg/day p.o.): attenuated collagen-induced rat arthritis
- lowered mechanical nociceptive threshold (mechanical hyperalgesia) ([3]; 10 mg/kg/day p.o., Day 28): prevented the mechanical hyperalgaesia; also recorded: removed
- maximal hind paw swelling ([3]; 10 mg/kg/day p.o., Day 28, change from baseline): 25±9%
- maximal DAI (disease activity index) ([3]; 10 mg/kg/day p.o., Day 28, maximum total score 18): 1.6±0.9
- animals affected by arthritic signs ([3]; 10 mg/kg/day p.o., by Day 28): 60%
- degranulated mast cells of all mast cells [3, 5]: less than 5%
- inactive mast cells of all mast cells [3, 5]: ~80%
- collagen loss (Masson's Trichrome) ([3]; compared to CIA-controls): significantly reduced collagen loss
- histopathological changes (H&E, tibia-talus joints) ([3]; daily administration): almost completely prevented
- arthritic-like up regulation of ED1-macrophages ([3]; rat, in vivo): prevented
- PAR2 antagonist potency relative to ENMD-1068 (PAR2): 1000 fold
